From article PMC4967831, “Structural dissection of a complex Bacteroides ovatus gene locus conferring xyloglucan metabolism in the human gut” (Open Biology, 2016) come the findings set out here.

What all share (assay type): binding
The target in assay [1] is T1, BoGH43A (Bacteroides ovatus, UniProt A7LXT8).
T1 construct: gene BACOVA_02654; pET28a construct with N-terminal His6-tag
As to the kind of experiment: ITC and crystal structure of the complex.

Assay [2] concerns the target T2, BoGH43B (Bacteroides ovatus, UniProt A7LXU0).
T2 construct: gene BACOVA_02656; expressed from pET21a(BoGH43B)
T2 sequence (A7LXU0 24-529): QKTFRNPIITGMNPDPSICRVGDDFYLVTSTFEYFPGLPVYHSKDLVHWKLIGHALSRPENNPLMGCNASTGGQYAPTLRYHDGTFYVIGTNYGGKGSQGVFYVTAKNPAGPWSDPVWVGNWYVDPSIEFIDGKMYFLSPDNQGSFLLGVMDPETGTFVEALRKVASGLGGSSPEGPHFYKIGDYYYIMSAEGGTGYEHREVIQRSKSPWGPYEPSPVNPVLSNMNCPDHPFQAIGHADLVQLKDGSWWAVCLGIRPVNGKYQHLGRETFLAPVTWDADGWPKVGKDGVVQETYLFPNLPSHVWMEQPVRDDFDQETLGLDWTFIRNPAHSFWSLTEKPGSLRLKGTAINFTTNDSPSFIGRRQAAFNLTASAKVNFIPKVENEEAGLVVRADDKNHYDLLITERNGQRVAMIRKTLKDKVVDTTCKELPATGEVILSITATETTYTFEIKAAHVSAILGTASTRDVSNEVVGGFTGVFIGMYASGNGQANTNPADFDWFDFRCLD
The assay can be described thus: ITC. On the technique in general: Isothermal titration calorimetry measures the heat released or taken up as one component is titrated into another.

Assay [3] concerns the target T1, BoGH43A. The assay can be described thus: crystal structure of the complex (soak); too weak to be measured by ITC.
The target in assay [4] is T3, BoGH3B (Bacteroides ovatus, UniProt A7LXU3).
T3 construct: gene BACOVA_02659; expressed from pET21a(GH3B)
T3 sequence (A7LXU3 23-786): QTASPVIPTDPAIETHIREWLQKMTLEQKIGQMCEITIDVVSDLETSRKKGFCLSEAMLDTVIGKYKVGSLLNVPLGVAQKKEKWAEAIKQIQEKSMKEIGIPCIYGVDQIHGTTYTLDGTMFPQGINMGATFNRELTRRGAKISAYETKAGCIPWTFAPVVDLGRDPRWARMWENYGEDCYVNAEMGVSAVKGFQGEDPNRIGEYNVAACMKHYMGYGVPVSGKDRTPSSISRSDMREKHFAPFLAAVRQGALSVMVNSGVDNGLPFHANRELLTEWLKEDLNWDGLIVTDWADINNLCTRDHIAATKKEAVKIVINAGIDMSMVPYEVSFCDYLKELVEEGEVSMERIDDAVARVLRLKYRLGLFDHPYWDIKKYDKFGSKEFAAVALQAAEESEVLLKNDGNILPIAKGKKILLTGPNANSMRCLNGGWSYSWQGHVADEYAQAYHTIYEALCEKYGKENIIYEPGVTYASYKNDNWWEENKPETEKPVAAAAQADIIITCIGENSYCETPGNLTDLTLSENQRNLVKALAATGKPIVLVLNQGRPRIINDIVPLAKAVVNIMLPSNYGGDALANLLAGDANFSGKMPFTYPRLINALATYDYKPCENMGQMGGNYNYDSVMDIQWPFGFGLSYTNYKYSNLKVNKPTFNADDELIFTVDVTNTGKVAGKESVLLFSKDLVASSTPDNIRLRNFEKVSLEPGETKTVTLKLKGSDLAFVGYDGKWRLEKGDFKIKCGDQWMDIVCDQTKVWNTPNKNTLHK
The assay can be described thus: crystal structure; glucose co-purified in the active site.

Assay [5] addresses T4, BoGH31 (Bacteroides ovatus, UniProt A7LXT0).
T4 construct: gene BACOVA_02646; pET-YSBL3C construct with N-terminal His6-tag and 3C-cleavage site
The assay can be described thus: crystal structure of covalent glycosyl-enzyme intermediate (soak).

T1 sequence (A7LXT8 21-526): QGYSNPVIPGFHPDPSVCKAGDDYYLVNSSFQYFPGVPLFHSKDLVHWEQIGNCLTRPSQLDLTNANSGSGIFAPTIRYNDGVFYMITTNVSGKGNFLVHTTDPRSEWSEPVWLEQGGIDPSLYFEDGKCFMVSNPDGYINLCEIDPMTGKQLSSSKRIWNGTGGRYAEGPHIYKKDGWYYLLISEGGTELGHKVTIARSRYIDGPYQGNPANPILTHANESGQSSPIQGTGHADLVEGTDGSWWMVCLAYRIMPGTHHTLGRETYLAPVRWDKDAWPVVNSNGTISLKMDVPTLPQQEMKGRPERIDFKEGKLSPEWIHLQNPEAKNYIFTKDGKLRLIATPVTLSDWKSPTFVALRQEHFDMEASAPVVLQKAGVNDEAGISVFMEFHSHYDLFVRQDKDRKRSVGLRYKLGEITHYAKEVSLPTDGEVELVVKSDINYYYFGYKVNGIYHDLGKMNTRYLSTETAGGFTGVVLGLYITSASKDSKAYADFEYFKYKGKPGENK
T4 sequence (A7LXT0 22-954): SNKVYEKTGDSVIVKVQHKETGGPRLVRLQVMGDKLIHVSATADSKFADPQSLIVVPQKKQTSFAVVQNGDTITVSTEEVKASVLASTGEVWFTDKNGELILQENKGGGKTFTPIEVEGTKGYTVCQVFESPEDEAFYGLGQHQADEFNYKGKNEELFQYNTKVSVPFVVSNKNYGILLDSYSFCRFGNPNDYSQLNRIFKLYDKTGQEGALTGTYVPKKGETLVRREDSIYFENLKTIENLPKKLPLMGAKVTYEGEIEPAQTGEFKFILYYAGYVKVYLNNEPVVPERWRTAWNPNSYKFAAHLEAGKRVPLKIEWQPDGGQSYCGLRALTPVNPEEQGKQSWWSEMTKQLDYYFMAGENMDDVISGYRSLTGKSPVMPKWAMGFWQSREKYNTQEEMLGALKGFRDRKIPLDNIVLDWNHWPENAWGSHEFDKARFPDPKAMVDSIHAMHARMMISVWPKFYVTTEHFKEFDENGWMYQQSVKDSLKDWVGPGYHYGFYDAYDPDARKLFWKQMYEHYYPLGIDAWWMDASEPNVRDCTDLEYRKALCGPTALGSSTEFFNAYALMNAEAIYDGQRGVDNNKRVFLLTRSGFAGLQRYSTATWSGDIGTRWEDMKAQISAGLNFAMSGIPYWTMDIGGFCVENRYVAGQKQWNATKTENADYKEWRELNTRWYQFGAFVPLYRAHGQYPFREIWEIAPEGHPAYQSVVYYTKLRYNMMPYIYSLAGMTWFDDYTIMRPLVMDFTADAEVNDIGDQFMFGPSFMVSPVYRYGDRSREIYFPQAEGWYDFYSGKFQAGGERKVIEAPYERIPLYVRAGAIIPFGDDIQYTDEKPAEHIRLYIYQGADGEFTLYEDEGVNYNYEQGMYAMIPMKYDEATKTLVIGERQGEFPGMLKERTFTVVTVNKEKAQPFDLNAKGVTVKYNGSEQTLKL

As for `OC[C@@H]1NC[C@H](O)[C@H]1O` [AraDNJ], the values for the Kd in assay [1] and in assay [2] were 35 ± 4 µM and 111 ± 6 µM, respectively. Turning to `OC[C@@H]1O/C(=N\O)[C@H](O)[C@H]1O` [AraLOG, (Z)-L-Arabinonhydroximo-1,4-lactone], the “crystal structure of the complex (soak); too weak to be measured by ITC” value in assay [3] was “the inhibitor stacking against Tyr187 while also H-bonding directly to the side chains of Glu210 and Glu189”. Turning to `OC[C@H]1O[C@@H](O)[C@H](O)[C@@H](O)[C@@H]1O` [glucose], the “crystal structure; glucose co-purified in the active site” value in assay [4] is “BoGH3B was found to co-purify with glucose in its active site (figure 5b)”. Take `OC[C@]1(F)O[C@H](F)[C@H](O)[C@@H](O)[C@@H]1O` [5FIdoF, 5-fluoro-β-L-idosyl fluoride]: the “crystal structure of covalent glycosyl-enzyme intermediate (soak)” value in assay [5] is listed as 5FIdoF forms an α-glycosidic linkage to the side-chain carboxylate of Asp553.

By Kd is commonly meant the concentration at which binding is half-saturated.
